Target: T1, human ANO6 (variant 5) (Homo sapiens, UniProt Q4KMQ2)
T1 construct: expressed in transfected cells; host or cells: Fischer rat thyroid (FRT) cells
T1 sequence (Q4KMQ2 1-931 isoform Q4KMQ2-2): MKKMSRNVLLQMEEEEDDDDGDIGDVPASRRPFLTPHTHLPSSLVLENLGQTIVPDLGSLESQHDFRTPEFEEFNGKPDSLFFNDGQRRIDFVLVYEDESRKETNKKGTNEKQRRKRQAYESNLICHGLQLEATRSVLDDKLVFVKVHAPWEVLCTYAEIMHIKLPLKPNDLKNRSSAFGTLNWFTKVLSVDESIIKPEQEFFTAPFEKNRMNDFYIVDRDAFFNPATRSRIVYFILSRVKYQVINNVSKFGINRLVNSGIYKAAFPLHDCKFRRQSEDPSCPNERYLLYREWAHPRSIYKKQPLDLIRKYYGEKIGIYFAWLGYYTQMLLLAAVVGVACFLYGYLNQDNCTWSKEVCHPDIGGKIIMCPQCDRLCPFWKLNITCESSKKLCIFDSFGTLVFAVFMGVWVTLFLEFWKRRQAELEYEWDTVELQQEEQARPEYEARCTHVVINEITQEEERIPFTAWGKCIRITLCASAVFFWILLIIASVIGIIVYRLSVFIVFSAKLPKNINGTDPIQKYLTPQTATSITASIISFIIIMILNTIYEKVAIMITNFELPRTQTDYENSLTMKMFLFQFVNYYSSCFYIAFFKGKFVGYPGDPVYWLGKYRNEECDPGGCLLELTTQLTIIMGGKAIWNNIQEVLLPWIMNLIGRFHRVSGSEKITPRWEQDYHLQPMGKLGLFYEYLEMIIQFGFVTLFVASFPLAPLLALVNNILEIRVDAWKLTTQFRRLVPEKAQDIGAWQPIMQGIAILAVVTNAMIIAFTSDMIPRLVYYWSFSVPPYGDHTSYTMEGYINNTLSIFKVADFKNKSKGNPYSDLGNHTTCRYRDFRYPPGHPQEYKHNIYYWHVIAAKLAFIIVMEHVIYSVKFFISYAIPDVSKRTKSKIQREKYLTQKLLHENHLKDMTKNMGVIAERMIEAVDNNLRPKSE
Experiment: Lact C2 assay (measuring phosphatidylserine externalization scramblase function)
Assay type: cell-based
Settings: FRT, FRT cells expressing human ANO6 (variant 5), ionomycin 10 µM, Lact-C2-GFP fluorescence, average of three tests; for inhibition at 1 µM: compound 1 µM, read-out: % Inhibition 1 µM; for inhibition at 0.05 µM: compound 50 nM, read-out: % Inhibition 50 nM; for inhibition at 0.1 µM: compound 100 nM
Method in brief: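 Cells were pretreated 10 min with compound (50 nM, 100 nM, 1 µM; 1% DMSO), then given 10 µM ionomycin for 10 min. Surface phosphatidylserine was stained with 500 nM Lact-C2-GFP (10 min, 37 °C), fixed and imaged. Inhibition was scaled between untreated (100%) and ionomycin-alone (0%) wells.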

Row | SMILES | inhibition at 1 µM | inhibition at 0.05 µM | inhibition at 0.1 µM
1 | FC(F)(F)Oc1ccc2nc(-c3cccc(Nc4ncc(-c5ccccn5)cn4)c3)[nH]c2c1 [Example 118, 5-(2-pyridyl)-N-[3-[6-(trifluoromethoxy)-1H-benzo[d]imidazol-2-yl]phenyl]pyrimidin-2-amine] | > 60% | > 60% | 
2 | FC(F)(F)c1ccc2nc(-c3cccc(Nc4ccc(-c5cncnc5)cc4)c3)[nH]c2c1 [Example 28, N-[4-(pyrimidin-5-yl)phenyl]-3-[6-(trifluoromethyl)-1H-benzo[d]imidazol-2-yl]aniline] |  | > 60% | > 60%
3 | Fc1cc(F)c2[nH]c(-c3cccc(Nc4ncc(-c5cccnn5)cn4)c3)nc2c1 [Example 292, N-(3-(5,7-difluoro-1H-benzo[d]imidazol-2-yl)phenyl)-5-(pyridazin-3-yl)pyrimidin-2-amine] | 30 to 60% |  | 
4 | c1cc(Nc2ncc(-c3ncco3)cn2)cc(-c2nc3ccccc3[nH]2)c1 [Example 171, N-[3-(1H-benzo[d]imidazol-2-yl)phenyl]-5-oxazol-2-yl-pyrimidin-2-amine] | 30 to 60% |  | 
5 | FC(F)Oc1ccc2nc(-c3cccc(Nc4cnc(-c5ccccn5)cn4)c3)[nH]c2c1 [Example 300, N-(3-(6-(difluoromethoxy)-1H-benzo[d]imidazol-2-yl)phenyl)-5-(pyridin-2-yl) pyrazin-2-amine] | > 60% | 30 to 60% | 
6 | FC(F)(F)c1ccc2nc(-c3cccc(Nc4ccc(-c5ccncn5)nn4)c3)[nH]c2c1 [Example 296, 6-(pyrimidin-4-yl)-N-(3-(6-(trifluoromethyl)-1H-benzo[d]imidazol-2-yl)phenyl)pyridazin-3-amine] | 30 to 60% |  | 
7 | Fc1ccc2nc(-c3cccc(Nc4ccc(-c5ccncn5)cn4)c3)[nH]c2c1 [Example 72, N-(3-(6-fluoro-1H-benzo[d]imidazol-2-yl)phenyl)-5-(pyrimidin-4-yl)pyridin-2-amine] |  | > 60% | > 60%
8 | COc1ccc(-c2ccc(Nc3cccc(-c4nc5ccc(C(F)(F)F)cc5[nH]4)c3)cc2)nn1 [Example 278, N-(4-(6-methoxypyridazin-3-yl)phenyl)-3-(6-(trifluoromethyl)-1H-benzo[d]imidazol-2-yl)aniline] |  | > 60% | 
9 | Fc1cc2[nH]c(-c3cccc(Nc4ncc(-c5ccccn5)cn4)c3)nc2cn1 [Example 286, N-(3-(6-fluoro-1H-imidazo[4,5-c]pyridin-2-yl)phenyl)-5-(pyridin-2-yl)pyrimidin-2-amine] | > 60% |  | 
10 | Fc1ccc(-c2cnc(Nc3cccc(-c4nc5ccc(C(F)(F)F)cc5[nH]4)c3)nc2)nc1 [Example 260, 5-(5-fluoropyridin-2-yl)-N-(3-(6-(trifluoromethyl)-1H-benzo[d]imidazol-2-yl)phenyl)pyrimidin-2-amine] | > 60% | 30 to 60% | 
11 | FC(F)(F)c1ccc2nc(-c3ccnc(Nc4ncc(-c5ccccn5)cn4)c3)[nH]c2c1 [Example 306, 5-(pyridin-2-yl)-N-(4-(6-(trifluoromethyl)-1H-benzo[d]imidazol-2-yl)pyridin-2-yl)pyrimidin-2-amine] | 30 to 60% |  | 
12 | FC(F)(F)c1cc2nc(-c3cccc(Nc4ncc(-c5cccnn5)cn4)c3)[nH]c2cc1Cl [Example 294, N-(3-(6-chloro-5-(trifluoromethyl)-1H-benzo[d]imidazol-2-yl)phenyl)-5-(pyridazin-3-yl)pyrimidin-2-amine] | > 60% | 30 to 60% | 
13 | Fc1cccc(-c2cnc(Nc3cccc(-c4nc5ccc(C(F)(F)F)cc5[nH]4)c3)nc2)c1 [Example 17, 5-(3-Fluorophenyl)-N-{3-[6-(trifluoromethyl)-1H-benzo[d]imidazol-2-yl]phenyl}pyrimidin-2-amine] | > 60% | > 60% | > 60%

Next, values leading:

Row | inhibition at 1 µM | inhibition at 0.05 µM | inhibition at 0.1 µM | SMILES
14 | 30 to 60% |  |  | Fc1cccc2nc(-c3cccc(Nc4ncc(-c5cccnn5)cn4)c3)[nH]c12 [Example 290, N-(3-(7-fluoro-1H-benzo[d]imidazol-2-yl)phenyl)-5-(pyridazin-3-yl)pyrimidin-2-amine]
15 |  | > 60% |  | Clc1cc2nc(-c3cccc(Nc4ccc(-c5cccnn5)cc4)c3)[nH]c2cc1Cl [Example 225, 3-(5,6-dichloro-1H-benzo[d]imidazol-2-yl)-N-(4-(pyridazin-3-yl)phenyl)aniline]
16 | > 60% | > 60% |  | c1ccc(COc2ccc3nc(-c4cccc(Nc5ccc(-c6cccnn6)cc5)c4)[nH]c3c2)cc1 [Example 222, 3-(6-(benzyloxy)-1H-benzo[d]imidazol-2-yl)-N-(4-(pyridazin-3-yl)phenyl)aniline]
17 | 30 to 60% |  |  | FC(F)Oc1ccc2nc(-c3cccc(Nc4ncc(-c5cccnn5)cn4)c3)[nH]c2c1 [Example 287, N-(3-(6-(difluoromethoxy)-1H-benzo[d]imidazol-2-yl)phenyl)-5-(pyridazin-3-yl)pyrimidin-2-amine]
18 | > 60% | 30 to 60% |  | CC(C)OC(=O)c1ccc2nc(-c3cccc(Nc4ccc(-c5cccnn5)cc4)c3)[nH]c2c1 [Example 111, isopropyl 2-(3-((4-(pyridazin-3-yl)phenyl)amino)phenyl)-1H-benzo[d]imidazole-6-carboxylate]
19 | > 60% | > 60% | > 60% | c1ccc(-c2ccc(Nc3cccc(-c4nc5ccccc5[nH]4)c3)cc2)nc1 [Example 20, 3-(1H-benzo[d]imidazol-2-yl)-N-(4-(pyridin-2-yl)phenyl)aniline]
20 | > 60% | > 60% |  | c1cc(Nc2ccc(-c3cscn3)cc2)cc(-c2nc3ccccc3[nH]2)c1 [Example 166, 3-(1H-benzo[d]imidazol-2-yl)-N-(4-thiazol-4-ylphenyl)aniline]
21 |  | > 60% |  | Clc1ccc2nc(-c3cccc(Nc4ncc(-c5ccccn5)cn4)c3)[nH]c2c1 [Example 82, N-[3-(6-chloro-1H-benzo[d]imidazol-2-yl)phenyl]-5-(2-pyridyl)pyrimidin-2-amine]
22 | > 60% |  |  | c1cc(Nc2ccc(-c3ccnnc3)cc2)cc(-c2nc3ccccc3[nH]2)c1 [Example 94, 3-(1H-benzo[d]imidazol-2-yl)-N-(4-pyridazin-4-ylphenyl)aniline]
23 | > 60% |  |  | COc1cc(Nc2cccc(-c3nc4ccccc4[nH]3)c2)ccc1-c1cccnn1 [Example 208, N-(3-(1H-benzo[d]imidazol-2-yl)phenyl)-3-methoxy-4-(pyridazin-3-yl)aniline]
24 |  | > 60% | > 60% | FC(F)(F)c1ccc2nc(-c3cccc(Nc4ccc(-c5ccccn5)cn4)c3)[nH]c2c1 [Example 57, N-{3-[6-(trifluoromethyl)-1H-benzo[d]imidazol-2-yl]phenyl}-[2,3'-bipyridin]-6'-amine]
25 | > 60% | > 60% | > 60% | Clc1ccc2nc(-c3cccc(Nc4ccc(-c5ccccc5)nn4)c3)[nH]c2c1 [Example 12, N-[3-(6-chloro-1H-benzo[d]imidazol-2-yl)phenyl]-6-phenylpyridazin-3-amine]
26 | > 60% | 30 to 60% |  | FC(F)(F)Oc1ccc2nc(-c3cccc(Nc4ncc(-c5cccnn5)cn4)c3)[nH]c2c1 [Example 295, 5-(pyridazin-3-yl)-N-(3-(6-(trifluoromethoxy)-1H-benzo[d]imidazol-2-yl)phenyl)pyrimidin-2-amine]
27 | > 60% | > 60% | > 60% | c1cc(Nc2ccc(-c3ccncn3)cc2)cc(-c2nc3ccccc3[nH]2)c1 [Example 22, N-[3-(1H-benzo[d]imidazol-2-yl)phenyl]-4-(pyrimidin-4-yl)aniline]
28 | > 60% | > 60% |  | Fc1ccc2nc(-c3cccc(Nc4ccc(-c5ccncn5)cc4)c3)[nH]c2c1 [Example 96, 3-(6-fluoro-1H-benzo[d]imidazol-2-yl)-N-(4-pyrimidin-4-ylphenyl)aniline]
29 |  | > 60% |  | Fc1cc(Nc2cccc(-c3nc4ccccc4[nH]3)c2)ccc1-c1cccnn1 [Example 270, N-(3-(1H-benzo[d]imidazol-2-yl)phenyl)-3-fluoro-4-(pyridazin-3-yl)aniline]

From patent EP4559908A1, “HETEROARYL DERIVATIVE COMPOUND AND USE THEREOF” (S2CBio Inc., priority 2022, dated 2024)
